Source: US8247211B2, “Glycopeptide antibiotics” (American Cyanamid Company, priority 2001, dated 2012)

Assays:
Test in all cases: In vitro antibacterial evaluation: minimum inhibitory concentration (MIC), broth dilution method
Assay type in all cases: cell-based
Details in all cases: 18 hours at 35° C.
[1] = test system: Streptococcus sp.
Method in brief: (§1)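 Inoculum: 5×10^5 CFU/mL. Range: 64-0.06 μg/mL. Medium: Muller-Hinton II […]; NCCLS M7-A2 broth dilution. Endpoint: lowest concentration inhibiting growth. Strains include methicillin-, penicillin- and/or vancomycin-resistant clinical isolates.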

[2] = test system: Escherichia coli
Method in brief: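 Test strains, among them recent clinical isolates carrying methicillin, penicillin and/or vancomycin resistance, were inoculated at 5×10^5 CFU/mL. A broth dilution series spanning 64-0.06 μg/mL in Muller-Hinton II […] (NCCLS M7-A2) defined the MIC as the lowest growth-inhibiting concentration.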

[3] = test system: Enterococcus sp.
Method in brief: as §1

[4] = test system: Staphylococcus sp.
Method in brief: as §1

Substance: γ-O-[(Heptylamino)carbonyl]-cyclo[glycyl-β-methylphenylalanyl-O-(4-O-hexopyranosylhexopyranosyl)tyrosyl-3-(2-iminoimidazolidin-4-yl)seryl-3-(3-hexopyranosyl-2-iminoimidazolidin-4-yl)serylseryl] [Example 253b]
- MIC Streptococcus agalactiae (GC 4564) ([1]; Streptococcus agalactiae (GC 4564)): 1 µg/mL
- MIC Streptococcus pneumoniae (ATCC 6301) ([1]; Streptococcus pneumoniae (ATCC 6301)): 0.25 µg/mL
- MIC Streptococcus pneumoniae (GC 1894) ([1]; Streptococcus pneumoniae (GC 1894)): <0.06 µg/mL
- MIC Streptococcus pneumoniae (GC 4565) ([1]; Streptococcus pneumoniae (GC 4565)): 0.25 µg/mL
- MIC Streptococcus pyogenes (GC 4563) ([1]; Streptococcus pyogenes (GC 4563)): 1 µg/mL
- MIC Streptococcus pneumoniae (ATCC 6301) ([1]; broth dilution, strain ATCC 6301): 0.25 µg/mL
- MIC Streptococcus pneumoniae (GC 1894) ([1]; broth dilution, strain GC 1894): <0.06 µg/mL
- MIC Streptococcus pyogenes (GC 4563) ([1]; broth dilution, strain GC 4563): 1 µg/mL
- MIC Streptococcus agalactiae (GC 4564) ([1]; broth dilution, strain GC 4564): 1 µg/mL
- MIC Streptococcus pneumoniae (GC 4565) ([1]; broth dilution, strain GC 4565): 0.25 µg/mL
- MIC Escherichia coli (ATCC 25922) ([2]; Escherichia coli (ATCC 25922)): 64 µg/mL
- MIC Escherichia coli (GC 4559) ([2]; Escherichia coli (GC 4559)): 64 µg/mL
- MIC Escherichia coli (GC 4560) ([2]; Escherichia coli (GC 4560)): 2 µg/mL
- MIC Enterococcus avium (GC 4558) ([3]; Enterococcus avium (GC 4558)): 8 µg/mL
- MIC Enterococcus faecalis (ATCC 29212) ([3]; Enterococcus faecalis (ATCC 29212)): 8 µg/mL
- MIC Enterococcus faecalis (GC 2242) ([3]; Enterococcus faecalis (GC 2242)): 8 µg/mL
- MIC Enterococcus faecalis (GC 2691) ([3]; Enterococcus faecalis (GC 2691)): 8 µg/mL
- MIC Enterococcus faecalis (GC 3059) ([3]; Enterococcus faecalis (GC 3059)): 16 µg/mL
- MIC Enterococcus faecalis (GC 4552) ([3]; Enterococcus faecalis (GC 4552)): 8 µg/mL
- MIC Enterococcus faecalis (GC 4553) ([3]; Enterococcus faecalis (GC 4553)): 8 µg/mL
- MIC Enterococcus faecalis (GC 4554) ([3]; Enterococcus faecalis (GC 4554)): 8 µg/mL
- MIC Enterococcus faecalis (GC 6189) ([3]; Enterococcus faecalis (GC 6189)): 8 µg/mL
- MIC Enterococcus faecium (GC 2243) ([3]; Enterococcus faecium (GC 2243)): 8 µg/mL
- MIC Enterococcus faecium (GC 4556) ([3]; Enterococcus faecium (GC 4556)): 8 µg/mL
- MIC Enterococcus faecium (GC 4557) ([3]; Enterococcus faecium (GC 4557)): 4 µg/mL
- MIC Enterococcus faecalis (ATCC 29212) ([3]; broth dilution, strain ATCC 29212): 8 µg/mL
- MIC Enterococcus faecalis (GC 2242) ([3]; broth dilution, strain GC 2242): 8 µg/mL
- MIC Enterococcus faecium (GC 2243) ([3]; broth dilution, strain GC 2243): 8 µg/mL
- MIC Enterococcus faecalis (GC 2691) ([3]; broth dilution, strain GC 2691): 8 µg/mL
- MIC Enterococcus faecalis (GC 3059) ([3]; broth dilution, strain GC 3059): 16 µg/mL
- MIC Enterococcus faecalis (GC 4552) ([3]; broth dilution, strain GC 4552): 8 µg/mL
- MIC Enterococcus faecalis (GC 4553) ([3]; broth dilution, strain GC 4553): 8 µg/mL
- MIC Enterococcus faecalis (GC 4554) ([3]; broth dilution, strain GC 4554): 8 µg/mL
- MIC Enterococcus faecium (GC 4556) ([3]; broth dilution, strain GC 4556): 8 µg/mL
- MIC Enterococcus faecium (GC 4557) ([3]; broth dilution, strain GC 4557): 4 µg/mL
- MIC Enterococcus avium (GC 4558) ([3]; broth dilution, strain GC 4558): 8 µg/mL
- MIC Enterococcus faecalis (GC 6189) ([3]; broth dilution, strain GC 6189): 8 µg/mL
- MIC Coagulase Negative Staphylococcus (GC 4547) ([4]; Coagulase Negative Staphylococcus (GC 4547)): 4 µg/mL
- MIC Coagulase Negative Staphylococcus (GC 4548) ([4]; Coagulase Negative Staphylococcus (GC 4548)): 2 µg/mL
- MIC Coagulase Negative Staphylococcus (GC 4549) ([4]; Coagulase Negative Staphylococcus (GC 4549)): 2 µg/mL
- MIC Coagulase Negative Staphylococcus (GC 4551) ([4]; Coagulase Negative Staphylococcus (GC 4551)): 4 µg/mL
- MIC Coagulase Negative Staphylococcus (GC 6257) ([4]; Coagulase Negative Staphylococcus (GC 6257)): 2 µg/mL
- MIC Staphylococcus aureus (ATCC 29213) ([4]; Staphylococcus aureus (ATCC 29213)): 4 µg/mL
- MIC Staphylococcus aureus (GC 1131) ([4]; Staphylococcus aureus (GC 1131)): 4 µg/mL
- MIC Staphylococcus aureus (GC 3051) ([4]; Staphylococcus aureus (GC 3051)): 2 µg/mL
- MIC Staphylococcus aureus (GC 3053) ([4]; Staphylococcus aureus (GC 3053)): 8 µg/mL
- MIC Staphylococcus aureus (GC 4541) ([4]; Staphylococcus aureus (GC 4541)): 2 µg/mL
- MIC Staphylococcus aureus (GC 4542) ([4]; Staphylococcus aureus (GC 4542)): 4 µg/mL
- MIC Staphylococcus aureus (GC 4544) ([4]; Staphylococcus aureus (GC 4544)): 4 µg/mL
- MIC Staphylococcus aureus (GC 4545) ([4]; Staphylococcus aureus (GC 4545)): 2 µg/mL
- MIC Staphylococcus aureus-SMITH (GC 4543) ([4]; Staphylococcus aureus-SMITH (GC 4543)): 2 µg/mL
- MIC Staphylococcus haemolyticus (GC 4546) ([4]; Staphylococcus haemolyticus (GC 4546)): 2 µg/mL
- MIC Staphylococcus aureus (ATCC 29213) ([4]; broth dilution, strain ATCC 29213): 4 µg/mL
- MIC Staphylococcus aureus (GC 1131) ([4]; broth dilution, strain GC 1131): 4 µg/mL
- MIC Staphylococcus aureus (GC 3051) ([4]; broth dilution, strain GC 3051): 2 µg/mL
- MIC Staphylococcus aureus (GC 3053) ([4]; broth dilution, strain GC 3053): 8 µg/mL
- MIC Staphylococcus aureus (GC 4541) ([4]; broth dilution, strain GC 4541): 2 µg/mL
- MIC Staphylococcus aureus (GC 4542) ([4]; broth dilution, strain GC 4542): 4 µg/mL
- MIC Staphylococcus aureus-SMITH (GC 4543) ([4]; broth dilution, strain GC 4543): 2 µg/mL
- MIC Staphylococcus aureus (GC 4544) ([4]; broth dilution, strain GC 4544): 4 µg/mL
- MIC Staphylococcus aureus (GC 4545) ([4]; broth dilution, strain GC 4545): 2 µg/mL
- MIC Staphylococcus haemolyticus (GC 4546) ([4]; broth dilution, strain GC 4546): 2 µg/mL
- MIC Coagulase Negative Staphylococcus (GC 4547) ([4]; broth dilution, strain GC 4547): 4 µg/mL
- MIC Coagulase Negative Staphylococcus (GC 4548) ([4]; broth dilution, strain GC 4548): 2 µg/mL
- MIC Coagulase Negative Staphylococcus (GC 4549) ([4]; broth dilution, strain GC 4549): 2 µg/mL
- MIC Coagulase Negative Staphylococcus (GC 4551) ([4]; broth dilution, strain GC 4551): 4 µg/mL
- MIC Coagulase Negative Staphylococcus (GC 6257) ([4]; broth dilution, strain GC 6257): 2 µg/mL
